This test relates to 233499-124-R-J3-PDC complex spheroid viability. Description: Anticancer human tumor 233499-124-R-J3-PDC patient-derived colon adenocarcinoma cell line growth inhibition [CLK]. The conditions noted are these: for viability, T/C: stronger effect = lower value. The source says:
A high-throughput screen of multi-cell type tumor spheroids was designed to identify active combinations of […] and targeted small molecules. Complex spheroids include a stromal component modeled by human endothelial cells (HUVEC) and fibroblasts modeled by human mesenchymal stem cells (MSCs). The concentration ranges selected for each drug and investigational agent were based upon clinically achievable concentrations if the clinical Cmax of the agent was known.
Compounds. The drugs and investigational agents: cirtuvivint (SM08502; NSC835563), CC-671 (NSC850746), vemurafenib (NSC761431), tapotoclax (NSC804041), sotorasib (NSC818433), adagrasib (NSC831453), MRTX-1133 (NSC836407), BAY2416964 (NSC825713), copanlisib (NSC816437), inavolisib (NSC800729), abemaciclib (NSC768073), osimertinib (NSC779217), entinostat (NSC756642), eltanexor (KPT-8602, NSC794443), venetoclax (NSC766270), ceralasertib (NSC777638), bortezomib (NSC756655), olaparib (NSC753686), talazoparib (NSC767125), alisertib (NSC759677), peposertib (NSC802822), gemcitabine (NSC613327), 5-fluorouracil (NSC19893), SN-38 (NSC673596), oxaliplatin (NSC266046), paclitaxel (NSC125973), and doxorubicin (NSC123127), were obtained from the National Cancer Institute (NCI) Developmental Therapeutics Program Chemical Repository. The FDA-approved anticancer drug set is available from the Developmental Therapeutics Program at https://dtp.cancer.gov/organization/dscb/obtaining/available plates.htm. […] The stock solutions were prepared in dimethyl sulfoxide (DMSO, Sigma-Aldrich, St. Louis, MO, cat. D2650), except for the platinum complexes which were prepared in saline (Quality Biological, Gaithersburg, MD, cat. 114-055-101), at 800-fold the tested concentration and stored at -70 degrees C prior to their use. All drugs and investigational agents were tested over a range starting from a high concentration at or near the clinical Cmax and decreasing in half-log increments. If the clinical Cmax for an agent had not been determined, the highest concentration tested was 10 microM.
Cell Culture. All cells were maintained in an incubator at 37 degrees C and 5% CO2 with 95% humidity. The PDC lines were cultured according to standard operating procedures established by the NCI PDMR. Briefly, all PDCs were thawed and cultured in Matrigel-coated flasks prepared with a working solution of 1X Ham's F-12 nutrient mix, without supplementation (Invitrogen, Waltham, MA, cat. 11765054), 100 U/mL penicillin-streptomycin (Invitrogen, cat. 15140122), and 2.5% Matrigel (Corning Inc., Corning, NY, cat. 354248) for the first three passages. The 947758-054-R-J2-PDC line was cultured in 6B/Colon 1A media, which includes advanced DMEM/F-12 (Thermo Fisher Scientific, cat. 12634028), 10 mM HEPES (Thermo Fisher Scientific, cat. 15630080), 1X GlutaMAX supplement (Thermo Fisher Scientific, cat. 35050061), 0.1 mg/mL primocin (InvivoGen, cat. ant-pm-2), 10% defined fetal bovine serum, heat inactivated (HyClone Laboratories Inc., cat. SH30070.03HI), 1.25 mM N-Acetyl-L-cysteine (Sigma-Aldrich, cat. A9165), 10 mM nicotinamide (Sigma-Aldrich, cat. N0636), 1X B-27 supplement (Thermo Fisher Scientific, cat. 17504044), 1X N-2 supplement (Thermo Fisher Scientific, cat. 17502048), and 10 microM Y-27632 dihydrochloride (Tocris Bioscience, cat. 1254). The 876862-298-R-J1-PDC was cultured in 6E media, which includes all 6B/Colon 1A media components plus 50% L-WRN conditioned media (ATCC, cat. CRL-3276), 50 ng/mL recombinant human EGF recombinant protein (hEGF; Thermo Fisher Scientific, cat. PHG0311), 10 ng/mL recombinant human fibroblast growth factor 10 (hGFG-10; PeproTech, cat. 100-26), 1 ng/mL recombinant human fibroblast growth factor 2 (hFGF-2; PeproTech, cat. 100-18B), and 1 µM prostaglandin E2 (PGE2; Tocris, cat. 2296). The 227483-062-R1-J1-PDC line was cultured in Panc media, containing all 6E components except hFGF-2, with the addition of 500 nM SB-431542 (Selleckchem, cat. S1067) and 10 nM gastrin (Tocris, cat. 3006). […]

From PubChem BioAssay AID2060613 (Molecular Pharmacology Branch, DTP, NCI, 2025) come the findings set out here.

The structures appear in SMILES notation. Several values for one entry are separate records, joined by “and”; a condition that tells them apart may be missing. Equal entries are not always repeated.
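Note: spheroids exposed to the drug combinations for seven days.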
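Throughout, for viability, T/C: percent viability relative to DMSO vehicle control wells taken as 100%.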

`C#Cc1c(F)ccc2cc(O)cc(-c3ncc4c(N5CC6CCC(C5)N6)nc(OCC56CCCN5CC(F)C6)nc4c3F)c12` (stereo unspecified): the viability, T/C reads like this: (compound 0.0316 µM) 86.1% and 87.7%; (compound 0.1 µM) 102% and 104%; (compound 0.316 µM) 95.6% and 105%; (compound 1 µM) 92% and 87.8%; (compound 3.16 µM) 89.5% and 79%; (compound 10 µM) 76.6% and 78.5%. Moreover, the IC50 (curve of compound) is greater than 10000 nM.
Regarding `C=C(F)C(=O)N1CCN(c2nc(OCC3CCCN3C)nc3c2CCN(c2cccc4cccc(Cl)c24)C3)CC1CC#N` (stereo unspecified), the viability, T/C runs as follows: (compound 0.0316 µM) 99.9% and 96.2%; (compound 0.1 µM) 86.9% and 90.1%; (compound 0.316 µM) 97% and 99.1%; (compound 1 µM) 95.4% and 97.3%; (compound 3.16 µM) 94.6% and 89.2%; (compound 10 µM) 38% and 87.9%. Besides, where the note is “curve of compound”, the IC50 is 7840 nM and > 10000 nM.
`C=CC(=O)N1CCN(c2nc(=O)n(-c3c(C)ccnc3C(C)C)c3nc(-c4c(O)cccc4F)c(F)cc23)C(C)C1` (stereo unspecified): the viability, T/C was 90.5% and 101% (compound 0.0316 µM); 81.9% and 87.6% (compound 0.1 µM); 90.6% and 110% (compound 0.316 µM); 87.6% and 101% (compound 1 µM); 95% and 104% (compound 3.16 µM); 96% and 92.6% (compound 10 µM). Also, the IC50 (curve of compound) is greater than 10000 nM.
`C=CC(=O)Nc1cc(Nc2nccc(-c3cn(C)c4ccccc34)n2)c(OC)cc1N(C)CCN(C)C`: the viability, T/C is 92.5% and 102% (compound 0.000949 µM); 91.5% and 98.6% (compound 0.003 µM); 99.7% and 103% (compound 0.00949 µM); 96.9% and 87.8% (compound 0.03 µM); 86% and 93.7% (compound 0.0949 µM); 76.8% and 82.2% (compound 0.3 µM). Also, the IC50 (curve of compound) was greater than 300 nM.
On to `CC(C)CC(NC(=O)C(Cc1ccccc1)NC(=O)c1cnccn1)B(O)O` (stereo unspecified), for which the viability, T/C by setting is: (compound 0.000949 µM) 101% and 106%; (compound 0.003 µM) 88.8% and 88.5%; (compound 0.00949 µM) 0.33% and 0.18%; (compound 0.03 µM) 0.31% and 0.22%; (compound 0.0949 µM) 0.13% and 0.2%; (compound 0.3 µM) 0.14% and 0.2%. For the same compound, the IC50 (curve of compound) is 4.97 nM and 4.96 nM.
As for `CC(CO)NC(=O)c1cc(-c2ccc(Cl)cc2)nn(-c2cnn(C)c2)c1=O` (stereo unspecified), the viability, T/C is 103% and 94.8% (compound 0.0316 µM); 95.2% and 90.1% (compound 0.1 µM); 96.3% and 95.6% (compound 0.316 µM); 96.8% and 92.9% (compound 1 µM); 92.7% and 96% (compound 3.16 µM); 89.7% and 83.2% (compound 10 µM). Further, where the note is “curve of compound”, the IC50 is greater than 10000 nM.
With `CC(Nc1ccc2c(c1)OCCn1cc(N3C(=O)OCC3C(F)F)nc1-2)C(N)=O` (stereo unspecified), the viability, T/C is 94% (compound 0.0316 µM); 83.7% (compound 0.1 µM); 79.8% (compound 0.316 µM); 74.8% (compound 1 µM); 61.7% (compound 3.16 µM); 51.9% (compound 10 µM). Besides, the IC50 (curve of compound) was greater than 10000 nM.
In the case of `CC1(C)CCC(CN2CCN(c3ccc(C(=O)NS(=O)(=O)c4ccc(NCC5CCOCC5)c([N+](=O)[O-])c4)c(Oc4cnc5[nH]ccc5c4)c3)CC2)=C(c2ccc(Cl)cc2)C1`, the viability, T/C is, setting by setting: (compound 0.0316 µM) 99.6% and 96.4%; (compound 0.1 µM) 98.9% and 93.4%; (compound 0.316 µM) 99.4% and 96.6%; (compound 1 µM) 95.5% and 98.7%; (compound 3.16 µM) 111% and 105%; (compound 10 µM) 12.8% and 25.5%. Besides, the IC50 (curve of compound) is 6150 nM and 6780 nM.
Consider `CCCS(=O)(=O)Nc1ccc(F)c(C(=O)c2c[nH]c3ncc(-c4ccc(Cl)cc4)cc23)c1F`, for which the viability, T/C runs as follows: (compound 0.0316 µM) 91.2% and 100%; (compound 0.1 µM) 97.3% and 103%; (compound 0.316 µM) 111% and 99.1%; (compound 1 µM) 104% and 110%; (compound 3.16 µM) 104% and 105%; (compound 10 µM) 98% and 65.2%. Also, the IC50 (curve of compound) was greater than 10000 nM.
In the case of `CCN1CCN(Cc2ccc(Nc3ncc(F)c(-c4cc(F)c5nc(C)n(C(C)C)c5c4)n3)nc2)CC1`, the viability, T/C (compound 0.00316 µM) was 100% and 102%; the viability, T/C (compound 0.01 µM) is 86.8% and 96.5%; the viability, T/C (compound 0.0316 µM) was 98.5% and 88%; the viability, T/C (compound 0.1 µM) is 93.8% and 104%; the viability, T/C (compound 0.316 µM) is 94.1% and 98.2%; the viability, T/C (compound 1 µM) is 102% and 64.3%. In addition, the IC50 (curve of compound) was greater than 1000 nM.
As for `CCc1c2c(nc3ccc(O)cc13)-c1cc3c(c(=O)n1C2)COC(=O)[C@]3(O)CC`, the viability, T/C (compound 0.00316 µM) is 88.5% and 83.9%; the viability, T/C (compound 0.01 µM) is 62.1% and 59.6%; the viability, T/C (compound 0.0316 µM) was 87.1% and 45.6%; the viability, T/C (compound 0.1 µM) is 92.3% and 52.8%; the viability, T/C (compound 0.316 µM) was 80.8% and 49.8%; the viability, T/C (compound 1 µM) is 42% and 37.8%.
For `CNC(=O)c1ccc(Nc2nc(OC3CCCC3)c3c(-c4ccc5nc(C)oc5c4)c[nH]c3n2)c(OC)c1`, the viability, T/C (compound 0.0316 µM) is 93.9% [middle of 12 runs]; the viability, T/C (compound 0.316 µM) is 74% [middle of 12 runs]; the viability, T/C (compound 3.16 µM) is 75.3% [middle of 12 runs]; the viability, T/C (compound 10 µM) was 72.6% [middle of 12 runs]. Where the note is “compound alone, run of 08/01/2023”, the IC50 is greater than 10000 nM.
As to `COC1C=CCC(C)C(C)S(=O)(=O)NC(=O)c2ccc3c(c2)N(CC2CCC21)CC1(CCCc2cc(Cl)ccc21)CO3` (stereo unspecified), the viability, T/C reads like this: (compound 0.0316 µM) 101% and 96.4%; (compound 0.1 µM) 86.9% and 97.1%; (compound 0.316 µM) 74% and 90.9%; (compound 1 µM) 80.4% and 83.1%; (compound 3.16 µM) 58.9% and 76%; (compound 10 µM) 5.33% and 8.83%. Also, the IC50 (curve of compound) was 3630 nM and 4800 nM.
In the case of `COc1c(OCCCN2CCOCC2)ccc2c3n(c(=NC(=O)c4cnc(N)nc4)nc12)CCN3`, the viability, T/C runs as follows: (compound 0.00316 µM) 83%; (compound 0.01 µM) 86%; (compound 0.0316 µM) 88.8%; (compound 0.1 µM) 49.3%; (compound 0.316 µM) 34.4%; (compound 1 µM) 3.62%. Where the note is “curve of compound”, the IC50 stood at 141 nM.
As for `Cn1ncnc1[C@H]1c2n[nH]c(=O)c3cc(F)cc(c23)N[C@@H]1c1ccc(F)cc1`, the viability, T/C is 100% and 107% (compound 0.000316 µM); 85.7% and 92% (compound 0.001 µM); 100% and 103% (compound 0.00316 µM); 97.6% and 97.4% (compound 0.01 µM); 100% and 97.1% (compound 0.0316 µM); 103% and 96% (compound 0.1 µM). Also, the IC50 (curve of compound) was greater than 100 nM.
`NC(=O)C(=Cn1cnc(-c2cc(C(F)(F)F)cc(C(F)(F)F)c2)n1)c1cncnc1`: the viability, T/C was 79.8% and 85.7% (compound 0.00949 µM); 92.3% and 86.1% (compound 0.03 µM); 94.4% and 92.1% (compound 0.0949 µM); 70.9% and 61.6% (compound 0.3 µM); 57.1% and 48% (compound 0.949 µM); 19.2% and 7.79% (compound 3 µM). Besides, under “curve of compound”, the IC50 is 1120 nM and 750 nM.
Consider `Nc1ccccc1NC(=O)c1ccc(CNC(=O)OCc2cccnc2)cc1`, for which the viability, T/C is 91.4% and 90.3% (compound 0.0316 µM); 87.2% and 89.8% (compound 0.1 µM); 74.4% and 96.3% (compound 0.316 µM); 78% and 89.7% (compound 1 µM); 32.4% and 33.4% (compound 3.16 µM); 0.79% and 1.47% (compound 10 µM). Besides, where the note is “curve of compound”, the IC50 is 2000 nM and 2250 nM.
